This note sets out measurements from patent publication US11655459B2, “Methods for reprogramming somatic cells” (Whitehead Institute for Biomedical Research, priority 2003, dated 2023).

The test system of the assay is fibroblasts derived from tail biopsies of mice that carry the inducible Oct4 transgene. The assay can be described thus: Nuclear transfer experiment: in vitro development of clones derived from Oct4-induced fibroblasts. Format: cell-based, mouse. As to the method:
Nuclear transfer was performed on fibroblasts derived from tail biopsies of mice that carry the inducible Oct4 transgene. Dox induction was for 24 hours prior to nuclear transfer. Cloned embryos were then activated and cultured to the blastocyst stage to derive ES cells as described previously (Hochedlinger and Jaenisch, 2002). […] [table]

[1] abbreviates: Dox induction 24 hours prior to nuclear transfer, fraction of eggs with pronucleus formation, single experiment, listed as Dox.
[2] abbreviates: Oct4 induced, Expt. #3 and #4 together.

Several values for one entry are separate records, joined by “and”; a condition that tells them apart may be missing. Equal entries are not always repeated.

For the compound `C[C@H]1c2cccc(O)c2C(=O)C2=C(O)[C@]3(O)C(=O)C(C(N)=O)=C(O)[C@@H](N(C)C)[C@@H]3[C@@H](O)[C@@H]21` [doxycycline], under setting [1], the “Blastocysts (% PN)” value is 27% and 21%; the “ES lines (% PN)” value was 5% and 9%. Also, where the note is “Dox induction 24 hours prior to nuclear transfer, single experiment”, the “Blastocysts (number)” value came out at 10. Besides, the “ES lines (number)” value (Dox induction 24 hours prior to nuclear transfer, single experiment, listed as Dox) was 2 and 4. Also, under setting [2], the “Blastocysts (% PN), average of experiments” value turned out to be 24% and the “ES lines (% PN), average of experiments” value was found to be 7%.
